Source: PubChem BioAssay AID2060351 (Molecular Pharmacology Branch, DTP, NCI, 2025)

Test system: 521955-158-R7-J2-PDC spheroids, viability % test/control
Experiment: Anticancer human tumor 521955-158-R7-J2-PDC patient-derived pancreatic carcinoma cell line growth inhibition [TAK]
Conditions: spheroids with HUVEC and MSC; for IC50: curve of first compound; for viability, T/C: stronger effect = lower value; active means viability on the fitted dose curve at most 10% of control; inactive means the rest
Source text: Combinatorial screen of targeted agents with TAK-243 and ipatasertib in multi-cell type tumor spheroids
A high-throughput screen of multi-cell type tumor spheroids was designed to identify active combinations of targeted small molecules and TAK-243 or ipatasertib. Complex spheroids include a stromal component modeled by human endothelial cells (HUVEC) and fibroblasts modeled by human mesenchymal stem cells (MSCs). The concentration ranges selected for each drug and investigational agent were based upon clinically achievable concentrations if the clinical Cmax of the agent was known.
Compounds. The drugs and investigational agents: TAK-243 (785004), ipatasertib (767898), everolimus (733504), selumetinib (741078), bortezomib (756655), trametinib (758246), ixazomib (758254), vemurafenib (761431), dabrafenib (764134), sapanisertib (764658), alpelisib (765974), and copanlisib (816437), were obtained from the National Cancer Institute (NCI) Developmental Therapeutics Program Chemical Repository. The FDA-approved anticancer drug set is available from the NCI Developmental Therapeutics Program. […] The stock solutions were prepared in dimethyl sulfoxide (DMSO, Sigma-Aldrich, St. Louis, MO, cat. D2650) at 800-fold the tested concentration and stored at -70 degrees C prior to their use. All drugs and investigational agents were tested over a range starting from a high concentration at or near the clinical Cmax and decreasing in half-log increments. If the clinical Cmax for an agent had not been determined, the highest concentration tested was 10 microM.
NCI60 Cell Culture. NCI60 cell lines were obtained from the NCI Developmental Therapeutics Program Tumor Repository. For each lot of cells, the Repository performed Applied Biosystems AmpFLSTR Identifiler testing with PCR amplification to confirm consistency with the published Identifier STR profile for each cell line. Cells were kept in continuous culture for no more than 20 passages. The optimal seeding densities for each of the cell lines at each time point assessed were determined prior to performing the concentration response studies. Briefly, the NCI60 human tumor lines were grown as monolayers in RPMI 1640 medium supplemented with 10% FBS and 2 mmol/L L-glutamine.
An additional 2 lines were from the NCI60 cell line panel including melanomas, MALME-3M and SK-MEL-2. Pooled donor human umbilical vein endothelial cells (HUVEC, Lonza, cat. CC-2519) and human mesenchymal stem cells (hMSC, Lonza, cat. PT-2501) were purchased from Lonza (Walkersville, MD).
PDMR cell lines were grown in complete medium (DC medium): Dulbecco's modified Eagle's medium (DMEM)/F12 supplemented with 5% fetal bovine serum (FBS), 2 mM L-glutamine, 100 U/mL penicillin and 100 µg/ml streptomycin, 0.4 µg/ml hydrocortisone, 10 ng/ml epidermal growth factor (EGF) recombinant human protein, 24 µg/mL adenine, and 0.1 mg/mL primocin. During culture from frozen stock vials, PDMR cells were cultured in the same medium containing 10 µM Y-27632 (see Table 3). The PDCs were cultured in complete DMEM/F12 media without 10 microM Y-27632 dihydrochloride for at least two passages prior to the screen. The pooled donor HUVEC and hMSC were cultured in endothelial cell growth medium 2 (PromoCell, Heidelberg, Germany, cat. C-22011) and mesenchymal stem cell growth medium 2 (PromoCell, cat. C-28009), respectively. For all experiments, HUVEC and hMSC were used at passages </=5.
For the pre-screen, cell seeding densities were determined from a titration spanning the range from 5,000 to 313 cells per well. The mct-spheroids including 60% malignant cells, 25% HUVEC and 15% MSC dispensed as a mixture into U-bottom Ultra-Low Attachment 384-well plates (Corning, NY)
High-throughput Drug Combination Screening.
Prior to their inoculation into 384-well plates, malignant cells, HUVEC, and hMSC were removed from T flasks using TrypLE express (Thermo Fisher Scientific, cat. 12605036) and harvested by centrifugation for 5 min at 233 x g. […]
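Further: spheroids exposed to compound for 7 days before readout.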

CC(=O)Nc1cccc(-n2c(=O)n(C3CC3)c(=O)c3c(Nc4ccc(I)cc4F)n(C)c(=O)c(C)c32)c1 + CC(C)NCC(C(=O)N1CCN(c2ncnc3c2C(C)CC3O)CC1)c1ccc(Cl)cc1
0.802 nM: IC50 (second compound 3 µM)
active: viability, T/C (second compound 30 µM, first compound 0.03 µM) 4.94%
0.763 nM: IC50 (second compound 9.49 µM)
inactive: viability, T/C (second compound 0.3 µM, first compound 94.9 pM) 98.9% | viability, T/C (second compound 0.3 µM, first compound 0.0003 µM) 79.8% | viability, T/C (second compound 0.3 µM, first compound 0.000949 µM) 51.1% | viability, T/C (second compound 0.3 µM, first compound 0.003 µM) 39.4% | viability, T/C (second compound 0.3 µM, first compound 0.00949 µM) 23.8% | viability, T/C (second compound 0.3 µM, first compound 0.03 µM) 11.7% | viability, T/C (second compound 0.949 µM, first compound 94.9 pM) 106% | viability, T/C (second compound 0.949 µM, first compound 0.0003 µM) 83.6% | viability, T/C (second compound 0.949 µM, first compound 0.000949 µM) 50.4% | viability, T/C (second compound 0.949 µM, first compound 0.003 µM) 39.7% | viability, T/C (second compound 0.949 µM, first compound 0.00949 µM) 24.9% | viability, T/C (second compound 0.949 µM, first compound 0.03 µM) 10.5% | viability, T/C (second compound 3 µM, first compound 94.9 pM) 99.6% | viability, T/C (second compound 3 µM, first compound 0.0003 µM) 61.7% | viability, T/C (second compound 3 µM, first compound 0.000949 µM) 50.2% | viability, T/C (second compound 3 µM, first compound 0.003 µM) 31.8% | viability, T/C (second compound 3 µM, first compound 0.00949 µM) 23% | viability, T/C (second compound 3 µM, first compound 0.03 µM) 8.8% | viability, T/C (second compound 9.49 µM, first compound 94.9 pM) 82.7% | viability, T/C (second compound 9.49 µM, first compound 0.0003 µM) 68.7% | viability, T/C (second compound 9.49 µM, first compound 0.000949 µM) 40.3% | viability, T/C (second compound 9.49 µM, first compound 0.003 µM) 32.1% | viability, T/C (second compound 9.49 µM, first compound 0.00949 µM) 25% | viability, T/C (second compound 9.49 µM, first compound 0.03 µM) 7.94% | viability, T/C (second compound 30 µM, first compound 94.9 pM) 93.1% | viability, T/C (second compound 30 µM, first compound 0.0003 µM) 61.4% | viability, T/C (second compound 30 µM, first compound 0.000949 µM) 44.3% | viability, T/C (second compound 30 µM, first compound 0.003 µM) 35.5% | viability, T/C (second compound 30 µM, first compound 0.00949 µM) 20.4%
0.786 nM: IC50 (second compound 30 µM)
1.4 nM: IC50 (second compound 0.949 µM)
1.34 nM: IC50 (second compound 0.3 µM)

CC(C)CC(NC(=O)C(Cc1ccccc1)NC(=O)c1cnccn1)B(O)O (stereo not given) + CC(C)NCC(C(=O)N1CCN(c2ncnc3c2C(C)CC3O)CC1)c1ccc(Cl)cc1
active: viability, T/C (second compound 0.3 µM, first compound 0.01 µM) 6.67% | viability, T/C (second compound 0.949 µM, first compound 0.01 µM) 8.18% | viability, T/C (second compound 3 µM, first compound 0.01 µM) 7.99% | viability, T/C (second compound 9.49 µM, first compound 0.01 µM) 7.48% | viability, T/C (second compound 30 µM, first compound 0.01 µM) 5.06%
5.61 nM: IC50 (second compound 0.3 µM) | IC50 (second compound 3 µM)
5.09 nM: IC50 (second compound 30 µM)
5.21 nM: IC50 (second compound 9.49 µM)
inactive: viability, T/C (second compound 0.3 µM, first compound 31.6 pM) 113% | viability, T/C (second compound 0.3 µM, first compound 0.0001 µM) 87.5% | viability, T/C (second compound 0.3 µM, first compound 0.000316 µM) 92% | viability, T/C (second compound 0.3 µM, first compound 0.001 µM) 104% | viability, T/C (second compound 0.3 µM, first compound 0.00316 µM) 92.7% | viability, T/C (second compound 0.949 µM, first compound 31.6 pM) 94.7% | viability, T/C (second compound 0.949 µM, first compound 0.0001 µM) 82.4% | viability, T/C (second compound 0.949 µM, first compound 0.000316 µM) 77.3% | viability, T/C (second compound 0.949 µM, first compound 0.001 µM) 82.8% | viability, T/C (second compound 0.949 µM, first compound 0.00316 µM) 92.2% | viability, T/C (second compound 3 µM, first compound 31.6 pM) 93.4% | viability, T/C (second compound 3 µM, first compound 0.0001 µM) 101% | viability, T/C (second compound 3 µM, first compound 0.000316 µM) 86.6% | viability, T/C (second compound 3 µM, first compound 0.001 µM) 84.9% | viability, T/C (second compound 3 µM, first compound 0.00316 µM) 93.1% | viability, T/C (second compound 9.49 µM, first compound 31.6 pM) 92.7% | viability, T/C (second compound 9.49 µM, first compound 0.0001 µM) 95.9% | viability, T/C (second compound 9.49 µM, first compound 0.000316 µM) 68.7% | viability, T/C (second compound 9.49 µM, first compound 0.001 µM) 80% | viability, T/C (second compound 9.49 µM, first compound 0.00316 µM) 82.7% | viability, T/C (second compound 30 µM, first compound 31.6 pM) 86.8% | viability, T/C (second compound 30 µM, first compound 0.0001 µM) 83.7% | viability, T/C (second compound 30 µM, first compound 0.000316 µM) 75.4% | viability, T/C (second compound 30 µM, first compound 0.001 µM) 78% | viability, T/C (second compound 30 µM, first compound 0.00316 µM) 84.1%
5.38 nM: IC50 (second compound 0.949 µM)
